Laboratory results published in patent US20070015132A1 (priority 2001, published 2007).

Legend:
[1] = test system: Mouse fibroblast cells (ATCC CRL-10225); type: cell-based
[2] = test system: Mouse fibroblast cells (ATCC CRL-10225); test: Glucose and lactate metabolic rate of fibroblast cells exposed to toxicants in 24-well plate; conditions: 6 hours; for glucose metabolic rate / lactate metabolic rate: different concentrations; for cell death on exposure: trypan blue exclusion

## O=[N+]([O-])c1ccc(O)c([N+](=O)[O-])c1 [2,4-dinitrophenol]
[1]
  effect on medium acidification rate at low concentrations: stimulate
  effect on medium acidification rate with concentration increasing: stimulation effects become weak until inhibition effects are observed
[2]
  glucose metabolic rate: opposite impact
  lactate metabolic rate: opposite impact
  cell death on exposure: not observed

## [F-].[Na+] [fluoride, sodium fluoride]
[2]
  glucose metabolic rate: inhibited in concentration dependent manner
  lactate metabolic rate: inhibited in concentration dependent manner
[2]; concentration 10 mM
  cell death on exposure: all cells died
